{
  "source": "patent US8969407B2",
  "about": "“Administration of coumarin, butylated hydroxyanisole and ethoxyquine for the treatment of canities” (L'Oreal, priority 2006, dated 2015)",
  "test_system": "normal human melanocytes (NHM)",
  "assay": "Measurement of reactive oxygen species (ROS) generated by an H2O2 stress in cultured normal human melanocytes",
  "type": "cell-based",
  "conditions": "NHM pretreated 12 h/18 h at 37° C. with compound; 250 μM H2O2; fluorescence after 15 minutes; FIG. 1",
  "description": "1-A-1. Protocol for Measuring the Reactive Oxygen Species (ROS) Generated by an H2O2 Stress in Cultured Normal Human Melanocytes (NHM): The normal human melanocytes (NHMs) were inoculated at DO at the density of 4×10^4 cells/cm^2. At D1, the culture medium was replaced with the 10 μM solution of 6-carboxy-2',7'-dichlorodihydrofluorescein diacetate, di[acetoxymethyl ester] in PBS (H2DCFDA, C2938, Molecular Probes). After 20 minutes, the H2DCFDA solution was replaced with the culture medium. The NHMs were left for 30 minutes before adding the H2O2 solution (250 μM). The fluorescence was measured after 15 minutes in a fluoroscan (excitation: 485 nm, emission: 538 nm). The compounds studied were used depending on their properties (concentration, preincubation time). N-Acetylcysteine ([…]-Sigma) was used as a reference molecule. The melanocytes were pretreated, 12 h/18 h at 37° C., with the compound studied in the culture medium, before being brought into contact for 20 minutes with H2DCFDA (10 μM in PBS). […] The fluorescence was measured after 15 minutes in a fluoroscan (excitation: 485 nm, emission: 538 nm). The results represent the crude fluorescence data, from which the autofluorescence values of “blank” cells, expressed in fluorescence units (fu), obtained during a representative experiment, have been deducted.",
  "data": [
    {"smiles": "CCOc1ccc2c(c1)C(C)=CC(C)(C)N2", "note": "[ethoxyquine, 6-ethoxy-2,2,4-trimethyl-1H-quinoline]", "values": [
      {"measurement": "ROS induced by H2O2 (H2DCFDA fluorescence)", "value": "decrease of the reactive oxygen species"}
    ]}
  ]
}
